Earlier results as cited in patent publication US11458150B2 (priority 2019, dated 2022).

System: pellagra patients
Details: in vivo

SMILES: O=C(O)c1cccnc1 [nicotinic acid]
- effect on symptoms of pellagra: disappearance of many symptoms of the disease
- time to blanching of acute erythematous dermal lesions with intact epithelium: ≤ 48 h
